The source of these data is PubChem BioAssay AID298 (DTP/NCI, 2004).

“And” between values parts separate entries of the source, which are not always exact repeats. Equal entries are not always repeated. Inconclusive results are not listed.

The test concerns MX-1 breast xenograft, intrarenal, nude mice, tumor weight. Put plainly: NCI In Vivo Anticancer Drug Screen. Data for tumor model Human Mammary Carcinoma MX-1 Xenograft (intrarenal inoculation) in NU/NU BALB/C (nude) mice. To be noted: endpoint: mean tumor weight change, higher = larger tumour. The procedure, abridged:
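Transplantable tumors established in mice; animals dosed with compound or vehicle; survival or tumor size then recorded. Result reported as treated (T) divided by vehicle control (C).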
On the technique in general: Xenograft models place foreign cells or tissue in a host animal.

Where [1] appears, read: dose: 300.0 mg/kg/injection, schedule: Q04DX003 (ip), vehicle: Klucel (hydroxypropylcellulose) (HPC).
Setting [2] is: dose: 25.0 mg/kg/injection, schedule: Q04DX003 (ip), vehicle: saline with Tween-80.
[3] abbreviates: dose: 300.0 mg/kg/injection, schedule: Q04DX003 (sc), vehicle: saline with Tween-80.
Setting [4] is: dose: 600.0 mg/kg/injection, schedule: Q04DX003 (sc), vehicle: saline with Tween-80.
The mark [5] stands for this setting: dose: 2400.0 mg/kg/injection, schedule: Q04DX003 (sc), vehicle: saline with Tween-80.

Take `CNNCc1ccc(C(=O)NC(C)C)cc1`: the T/C was 97 % of control (dose: 50.0 mg/kg/injection, schedule: Q01DX010 (sc), vehicle: saline); 70 % of control (dose: 100.0 mg/kg/injection, schedule: Q01DX010 (sc), vehicle: saline); 45 % of control (dose: 200.0 mg/kg/injection, schedule: Q01DX010 (sc), vehicle: saline); 4 % of control (dose: 400.0 mg/kg/injection, schedule: Q01DX010 (sc), vehicle: saline).

Take `Nc1ncnc2c1c1c(=O)[nH]c(=O)[nH]c1n2C1OC(CO)C(O)C1O` (stereo not drawn): the T/C is 62 % of control (dose: 112.5 mg/kg/injection, schedule: Q04DX003 (sc), vehicle: distilled water + Tween-80); 63 % of control (dose: 225.0 mg/kg/injection, schedule: Q04DX003 (sc), vehicle: distilled water + Tween-80); 31 % of control (dose: 450.0 mg/kg/injection, schedule: Q04DX003 (sc), vehicle: distilled water + Tween-80); 25 % of control (dose: 900.0 mg/kg/injection, schedule: Q04DX003 (sc), vehicle: distilled water + Tween-80).

As for `O=c1[nH]cnc2c1cnn2CN1CCOCC1`, the T/C reads like this: (dose: 150.0 mg/kg/injection, schedule: Q04DX003 (ip), vehicle: Klucel (hydroxypropylcellulose) (HPC)) 96 % of control; under setting [1], 65 % of control.

Regarding `C[C@]12CC[C@H]3[C@@H](CCC4=C[C@@H](OC5OCC(OC6OC(CO)C(O)C(O)C6O)C(O)C5O)CC[C@@]43C=O)[C@@]1(O)CCC2C1=CC(=O)OC1` (stereo partly drawn), the T/C (dose: 15.0 mg/kg/injection, schedule: Q04DX003 (sc), vehicle: Klucel (hydroxypropylcellulose) (HPC)) is 118 % of control.

As for `COc1cc(Cc2nccc3cc(OC)c(OC)cc23)c(C(C)=O)cc1OC`, the T/C (dose: 300.0 mg/kg/injection, schedule: Q04DX003 (sc), vehicle: saline) was 54 % of control; the T/C (dose: 600.0 mg/kg/injection, schedule: Q04DX003 (sc), vehicle: saline) is 68 % of control; the T/C (dose: 1200.0 mg/kg/injection, schedule: Q04DX003 (sc), vehicle: saline) is 48 % of control.

Turning to `C=C(C)/C([O-])=N/[N+](C)(C)CC(O)CCCCCCCCCCCC` (stereo not drawn), the T/C is 76 % of control (dose: 5.0 mg/kg/injection, schedule: Q04DX003 (ip), vehicle: Klucel (hydroxypropylcellulose) (HPC)); 111 % of control (dose: 10.0 mg/kg/injection, schedule: Q04DX003 (ip), vehicle: Klucel (hydroxypropylcellulose) (HPC)); 90 % of control and 103 % of control (dose: 20.0 mg/kg/injection, schedule: Q04DX003 (ip), vehicle: Klucel (hydroxypropylcellulose) (HPC)); 78 % of control (dose: 40.0 mg/kg/injection, schedule: Q04DX003 (ip), vehicle: Klucel (hydroxypropylcellulose) (HPC)); 102 % of control and 118 % of control (dose: 80.0 mg/kg/injection, schedule: Q04DX003 (ip), vehicle: Klucel (hydroxypropylcellulose) (HPC)); 85 % of control (dose: 320.0 mg/kg/injection, schedule: Q04DX003 (ip), vehicle: Klucel (hydroxypropylcellulose) (HPC)).

Take `COc1cccc2c1C(=O)c1c(O)c3c(c(O)c1C2=O)CC(O)(/C(C)=N/NC(=O)CCCCC(=O)N/N=C(\C)C1(O)Cc2c(O)c4c(c(O)c2C(OC2CC(N)C(O)C(C)O2)C1)C(=O)c1c(OC)cccc1C4=O)CC3OC1CC(N)C(O)C(C)O1` (stereo not drawn): the T/C (dose: 12.5 mg/kg/injection, schedule: Q04DX003 (sc), vehicle: water) was 41 % of control; the T/C (dose: 25.0 mg/kg/injection, schedule: Q04DX003 (sc), vehicle: water) is 5 % of control; the T/C (dose: 50.0 mg/kg/injection, schedule: Q04DX003 (sc), vehicle: water) is -56 % of control.

Turning to `COc1cc2c(oc(=O)c3cc(C)cc(OC)c32)c2c(C3OC(C)C(O)C(C)(O)C3O)ccc(O)c12` (stereo not drawn), the T/C is 97 % of control and 106 % of control (dose: 12.5 mg/kg/injection, schedule: Q04DX003 (ip), vehicle: DMSO); 48 % of control and 63 % of control (dose: 50.0 mg/kg/injection, schedule: Q04DX003 (ip), vehicle: DMSO).

With `CC(C)N1C(=O)N(Cl)C2C1N(Cl)C(=O)N2Cl` (stereo not drawn), the T/C under setting [2] was 113 % of control.

Regarding `N/C(=N\O)c1cn(C2OC(CO)C(O)C2O)c2ncnc(N)c12` (stereo not drawn), the T/C was 91 % of control (dose: 5.0 mg/kg/injection, schedule: Q04DX003 (sc), vehicle: Klucel (hydroxypropylcellulose) (HPC)) and 70 % of control (dose: 10.0 mg/kg/injection, schedule: Q04DX003 (sc), vehicle: Klucel (hydroxypropylcellulose) (HPC)).

For `Cc1nc(N)nc(N)c1N1CCN(c2ccc(C(=O)NC(CCC(=O)O)C(=O)O)cc2)CC1` (stereo not drawn), the T/C by setting is: (dose: 12.5 mg/kg/injection, schedule: Q04DX003 (ip), vehicle: other) 85 % of control; (dose: 25.0 mg/kg/injection, schedule: Q04DX003 (ip), vehicle: other) 112 % of control; (dose: 50.0 mg/kg/injection, schedule: Q04DX003 (ip), vehicle: other) 122 % of control; (dose: 100.0 mg/kg/injection, schedule: Q04DX003 (ip), vehicle: other) 87 % of control.

Consider `C[n+]1c(-c2ccc(NC(=O)c3ccc(C(=O)Nc4ccc(-c5cn6ccccc6[n+]5C)cc4)cc3)cc2)cn2ccccc21`, for which, where the note is “dose: 12.5 mg/kg/injection, schedule: Q04DX003 (ip), vehicle: saline with Tween-80”, the T/C was 41 % of control.

In the case of `CCOC1=Cc2c(oc3c(C(C)(C)C)cc(OCC)cc23)OC(C(C)(C)C)=C1`, the T/C (dose: 37.5 mg/kg/injection, schedule: Q04DX003 (sc), vehicle: saline with Tween-80) is 94 % of control; the T/C (dose: 75.0 mg/kg/injection, schedule: Q04DX003 (sc), vehicle: saline with Tween-80) was 98 % of control; the T/C (dose: 150.0 mg/kg/injection, schedule: Q04DX003 (sc), vehicle: saline with Tween-80) is 121 % of control; the T/C under setting [3] is 92 % of control and 111 % of control; the T/C under setting [4] is 77 % of control; the T/C under setting [5] is 73 % of control.

In the case of `COC(=O)CC(N)C(=O)O` (stereo not drawn), the T/C was 78 % of control under setting [3]; 121 % of control under setting [4]; 99 % of control (dose: 1200.0 mg/kg/injection, schedule: Q04DX003 (sc), vehicle: saline with Tween-80); 101 % of control under setting [5].

Consider `C=Cc1cc(OC)c2c(c1)c(=O)oc1c2cc(OC)c2c(O)ccc(C3OC(C(C)O)C(O)C3O)c21` (stereo not drawn), for which the T/C by setting is: (dose: 37.5 mg/kg/injection, schedule: Q04DX003 (ip), vehicle: Klucel (hydroxypropylcellulose) (HPC)) 91 % of control; (dose: 75.0 mg/kg/injection, schedule: Q04DX003 (ip), vehicle: Klucel (hydroxypropylcellulose) (HPC)) 51 % of control and 70 % of control; under setting [1], 28 % of control and 29 % of control.

For `O=S(=O)(c1cccc(N=C=S)c1)c1cccc(N=C=S)c1`, the T/C is, setting by setting: (dose: 50.0 mg/kg/injection, schedule: Q04DX003 (ip), vehicle: Klucel (hydroxypropylcellulose) (HPC)) 121 % of control; (dose: 100.0 mg/kg/injection, schedule: Q04DX003 (ip), vehicle: Klucel (hydroxypropylcellulose) (HPC)) 83 % of control; (dose: 200.0 mg/kg/injection, schedule: Q04DX003 (ip), vehicle: Klucel (hydroxypropylcellulose) (HPC)) 82 % of control.

With `NCCCNCCCCNC(=O)C(O)NC(=O)CCCCCCN=C(N)N` (stereo not drawn), the T/C under setting [2] is 69 % of control.

On to `N#CC(C#N)=C/C=C/c1cccc([N+](=O)[O-])c1`, for which the T/C is, setting by setting: (dose: 200.0 mg/kg/injection, schedule: Q01DX010 (sc), vehicle: Klucel (hydroxypropylcellulose) (HPC)) 176 % of control; (dose: 400.0 mg/kg/injection, schedule: Q01DX010 (sc), vehicle: Klucel (hydroxypropylcellulose) (HPC)) 214 % of control.

Consider `COc1ccc2[nH]c3ccc4cc[n+](CCN5CCC(C6CCN(CC[n+]7ccc8ccc9[nH]c%10ccc(OC)cc%10c9c8c7)CC6)CC5)cc4c3c2c1`, for which the T/C runs as follows: (dose: 4.0 mg/kg/injection, schedule: Q04DX003 (ip), vehicle: water) 100 % of control; (dose: 8.0 mg/kg/injection, schedule: Q04DX003 (ip), vehicle: other) 69 % of control; (dose: 8.0 mg/kg/injection, schedule: Q04DX003 (ip), vehicle: water) 38 % of control; (dose: 16.0 mg/kg/injection, schedule: Q04DX003 (ip), vehicle: other) 92 % of control; (dose: 16.0 mg/kg/injection, schedule: Q04DX003 (ip), vehicle: water) 35 % of control; (dose: 23.04 mg/kg/injection, schedule: Q04DX003 (ip), vehicle: other) 101 % of control. Moreover, the T/C by setting is: (dose: 32.0 mg/kg/injection, schedule: Q04DX003 (ip), vehicle: other) 86 % of control; (dose: 32.0 mg/kg/injection, schedule: Q04DX003 (ip), vehicle: water) 35 % of control; (dose: 38.4 mg/kg/injection, schedule: Q04DX003 (ip), vehicle: other) 53 % of control; (dose: 64.0 mg/kg/injection, schedule: Q04DX003 (ip), vehicle: other) 32 % of control and 42 % of control; (dose: 64.0 mg/kg/injection, schedule: Q04DX003 (ip), vehicle: water) 8 % of control.
